Measured values taken from patent publication EP4744680A1, “TARGETED CHEMICAL DRUG AND PREPARATION METHOD THEREFOR, PHARMACEUTICAL COMPOSITION, AND USE OF TARGETED CHEMICAL DRUG” (Bai Yao Zhi Da (Beijing) Nanobio Technology Co., Ltd., priority 2023, dated 2025).

Tests used:
A549 lung carcinoma = assay: In-vivo efficacy study in the A549 mouse lung carcinoma model (drugs of Example 6 and Example 20); design: species or system mouse (BALB/cAnSlacNifdc-nu); settings: for Tumor growth inhibition rate (TGI, %) at different days post-inoculation: 0.12mg/20g i.v. (tail vein) once weekly, 3 administrations
Excerpt: • Species/strain: BALB/cAnSlacNifdc-nu • Sex: Male • Body weight: 17-21 g
1).Inoculation and grouping: For the A549 mouse lung carcinoma model, male BALB/cAnSlacNifdc-nu mice weighing 17.0-21.0 g were used. Under aseptic conditions, A549 tumor tissue was excised and cut into 2.0 mm × 2.0 mm × 2.0 mm tumor blocks, which were implanted subcutaneously into the left axillary dorsal region of nude mice. The day of implantation was designated as Day 0 (D0).When the tumor volume reached approximately 150.0 mm^3 (D7), animals were randomized by tumor volume into four groups: A (vehicle control), B, C, and D (drug), with 8 animals per group. On the day of randomization, all groups began intravenous (tail-vein) dosing. Groups A, B, C, and subgroup D1 were dosed once weekly for a total of 3 administrations; subgroup D2 was dosed twice weekly for a total of 6 administrations. 2).Dosing regimen: Table 34
(§1) Tumor size is measured twice per week using a vernier caliper. The long diameter (a) and short diameter (b) are recorded. Tumor volume is calculated as: V=0.5×a×b^2.
RTV = Vt /V0 , [formula] where V0 is the tumor volume at grouping/first dosing (D0) and Vt is the tumor volume at each measurement time point.

U251-RFP human glioma = assay: In-vivo efficacy study in the U251-RFP human glioma orthotopic mouse model (drug of Example 9); design: species or system mouse (BALB/c nude); settings: 6mg/Kg i.v. (tail vein) twice weekly, 8 administrations
Excerpt: 2.Dosing regimen: Table 41

N87 gastric cancer = assay: In vivo antitumor efficacy in an N87 gastric cancer mouse model (drug of Example 1); design: species or system mouse (BALB/c nude); settings: 0.06mg i.v. (tail vein) twice per week for 5 weeks
Experimental: (1)..Cell culture: Tumor cells were cultured in RPMI-1640 medium supplemented with heat-inactivated 10% fetal bovine serum, 100 U/mL penicillin, 100 µg/mL streptomycin, and 2 mM L-glutamine, in a humidified incubator at 37 °C with 5% CO2.Subculture was performed every 3-4 days after confluence; tumor cells in logarithmic growth phase were used for in vivo inoculation. (2).Tumor cell inoculation and grouping: Tumor cells (1 × 10^7) resuspended in PBS: Matrigel were inoculated subcutaneously into the right flank of each mouse.When tumors reached approximately 80-100 mm^3, animals were randomized into groups for dosing. […] (3).Dosing Regimen: Table 22
The dosing volume is 200 µL per 20 g mouse, with the administered dose calculated on a body-weight basis; the observation period is 60 days, adjustable according to the condition of the animals and tumor status.
• a. Tumor volume: Measured twice weekly using vernier calipers. The long and short diameters were recorded; tumor volume was calculated as: Volume = 0.5 × length × (width)^2. • b. Post-administration reactions in animals: At each tumor-measurement time point, body weight was recorded.Changes in body weight relative to dosing time were documented.Survival and general health (e.g., activity, feeding) were monitored throughout the dosing period. • c. Tumor excision, weighing, and photography: at the end of the study, mice were euthanized; tumors were excised, photographed and collected; specimens were fixed or snap-frozen as required. • a) Photograph each animal post-euthanasia with tumor in situ; • b) Dissect and weigh each subcutaneous tumor; • c) Arrange all tumors on a white board according to group codes and photograph; then bisect longitudinally, realign by group code, and photograph again. • d) Tumors were snap-frozen or formalin-fixed per requirements. • d.
• a. […] Inhibition Rate of Tumor Weight (IRTW, %) IRTW (%) = (Wcontrol group−Wtreatment group)/Wcontrol group × 100, [formula] where W is tumor weight.IRTW > 60% is considered effective.

[1] = Body weight in the A549 study of the Example 3 drug; assay type: in vivo, mouse (BALB/c-nu)
Experimental: Body weight is measured twice per week.Data are recorded and changes analyzed.

[2] = Body weight in the N87 study of the Example 1 drug; assay type: in vivo, mouse (BALB/c nude); settings: 0.06mg i.v. (tail vein) twice per week for 5 weeks
HepG2 liver cancer = assay: In-vivo efficacy study in the HepG2 mouse liver cancer model (drug of Example 6); design: species or system mouse (BALB/cAnSlacNifdc-nu); settings: for Tumor growth inhibition rate (TGI, %) at different days post-inoculation: 6 mg/kg (0.12 mg/mouse) i.v. (tail vein) once weekly
Excerpt: • Species/strain: BALB/cAnSlacNifdc-nu • Sex: Male • Body weight: 16-18 g
1).Inoculation and grouping: For the HepG2 mouse liver cancer model, male BALB/cAnSlacNifdc-nu nude mice, weighing 16.0-18.0 g, were used.Under aseptic conditions, HepG2 tumor tissue was excised and cut into 2.0mm×2.0mm×2.0mm tumor blocks, which were uniformly implanted subcutaneously into the left axillary dorsal region of nude mice. The day of implantation was designated as Day 0 (D0).When the tumor volume reached approximately 250.0 mm^3 (D7), animals were randomized by tumor volume into three groups: A (control group), B, and C (treatment groups), with 8 animals per group.On the day of randomization, all animals began intravenous (tail-vein) dosing once weekly for a total of 3 administrations. 2.Dosing regimen: Table 37
as §1
RTV = Vt /V0 , [formula] where V0 is the tumor volume at grouping/first dosing (D0), and Vt is the tumor volume at each measurement time point.
6).Tumor weight: At the end of the study (D23), the remaining animals were euthanized by cervical dislocation. Tumors were excised, weighed, and photographed.

[3] = end of the study (D29), intravenous administration

COc1cccc2c1C(=O)c1c(O)c3c(c(O)c1C2=O)C[C@@](O)(C(=O)CO)C[C@@H]3O[C@H]1C[C@H](N)[C@@H](O)[C@H](C)O1 [Epirubicin drug substance (API), Epirubicin]
Tumor growth inhibition rate (TGI, %) at different days post-inoculation (A549 lung carcinoma; Day 11): 27.01%
Tumor growth inhibition rate (TGI, %) at different days post-inoculation (A549 lung carcinoma; Day 14): 45.82%
Tumor growth inhibition rate (TGI, %) at different days post-inoculation (A549 lung carcinoma; Day 18): 43.61%
Tumor growth inhibition rate (TGI, %) at different days post-inoculation (A549 lung carcinoma; Day 21): 44.97%
Tumor growth inhibition rate (TGI, %) at different days post-inoculation (A549 lung carcinoma; Day 25): 46.31%
Tumor growth inhibition rate (TGI, %) at different days post-inoculation (A549 lung carcinoma; Day 29): 49.64%
T/C (A549 lung carcinoma; [3]): greater than 40%
tumor growth inhibition rate (calculated based on tumor volume) (A549 lung carcinoma; [3]): less than 60%
Tumor growth inhibition rate (TGI, %) at different days post-inoculation (U251-RFP human glioma; Day 6): 35.8%
Tumor growth inhibition rate (TGI, %) at different days post-inoculation (U251-RFP human glioma; Day 10): -3.9%
Tumor growth inhibition rate (TGI, %) at different days post-inoculation (U251-RFP human glioma; Day 13): -7.1%
Tumor growth inhibition rate (TGI, %) at different days post-inoculation (U251-RFP human glioma; Day 17): 19.4%
Tumor Growth Inhibition Rate at Different Days Post-Inoculation (%) (N87 gastric cancer; Day 9): 8.44%
Tumor Growth Inhibition Rate at Different Days Post-Inoculation (%) (N87 gastric cancer; Day 13): 0.40%
Tumor Growth Inhibition Rate at Different Days Post-Inoculation (%) (N87 gastric cancer; Day 17): 6.68%
Tumor Growth Inhibition Rate at Different Days Post-Inoculation (%) (N87 gastric cancer; Day 20): 7.83%
Tumor Growth Inhibition Rate at Different Days Post-Inoculation (%) (N87 gastric cancer; Day 23): 12.46%
Tumor Growth Inhibition Rate at Different Days Post-Inoculation (%) (N87 gastric cancer; Day 27): 23.34%
Tumor Growth Inhibition Rate at Different Days Post-Inoculation (%) (N87 gastric cancer; Day 30): 25.87%
Tumor Growth Inhibition Rate at Different Days Post-Inoculation (%) (N87 gastric cancer; Day 34): 31.16%
Tumor Growth Inhibition Rate at Different Days Post-Inoculation (%) (N87 gastric cancer; Day 37): 36.26%
Body-weight difference (g) between Day 32 and Day 5 ([1]; 0.08mg i.v. (tail vein) twice weekly for 5 weeks): 6.3 g
Body-weight difference (g) between Day 32 and Day 5 ([1]; 0.12mg i.v. (tail vein) twice weekly for 5 weeks): 6.1 g
Body-weight difference (g) between Day 32 and Day 5 ([1]; 0.14mg i.v. (tail vein) twice weekly for 5 weeks): 0.2 g
Body-weight difference between Day 37 and Day 6 [2]: 0.91 g
Tumor weight inhibition rate, IRTW (%) (HepG2 liver cancer; 23 days post-HepG2 inoculation, 6 mg/kg (0.12 mg/mouse) i.v. once weekly, 3 administrations): 25.20%
Tumor growth inhibition rate (TGI, %) at different days post-inoculation (HepG2 liver cancer; Day 10, 3 administrations): 16.33%
Tumor growth inhibition rate (TGI, %) at different days post-inoculation (HepG2 liver cancer; Day 14, 3 administrations): 36.16%
Tumor growth inhibition rate (TGI, %) at different days post-inoculation (HepG2 liver cancer; Day 21, 3 administrations): 24.72%
Tumor growth inhibition rate (TGI, %) at different days post-inoculation (HepG2 liver cancer; Day 23, 3 administrations): 22.08%
tumor growth inhibition rate (calculated based on tumor weight and tumor volume) (HepG2 liver cancer; end of the study (D23), intravenous injection): less than 60%
